Data taken from patent US10485235B2, “Aryloxypyrimidinyl ethers as herbicides” (FMC Corporation, priority 2015, dated 2019).

Legend:
Type in all cases: in vivo
[1] = tested on: barnyardgrass (Echinochloa crus-galli); assay: Test A preemergence, barnyardgrass; conditions: Preemergence, 0 to 100 scale (0 no effect, 100 complete control)
Excerpt: (§1) Seeds of plant species selected from barnyardgrass (Echinochloa crus-galli), kochia (Kochia scoparia), ragweed (common ragweed, Ambrosia elatior), ryegrass, Italian (Italian ryegrass, Lolium multiflorum), foxtail, giant (giant foxtail, Setaria faberii), and pigweed (Amaranthus retroflexus), were planted into a blend of loam soil and sand and treated preemergence with a directed soil spray using test chemicals formulated in a non-phytotoxic solvent mixture which included a surfactant.
(§2) At the same time, plants selected from these weed species and also wheat (Triticum aestivum), corn (Zea mays), blackgrass (Alopecurus myosuroides), and galium (catchweed bedstraw, Galium aparine), were planted in pots containing the same blend of loam soil and sand and treated with postemergence applications of test chemicals formulated in the same manner. Plants ranged in height from 2 to 10 cm and were in the one- to two-leaf stage for the postemergence treatment. Treated plants and untreated controls were maintained in a greenhouse for approximately 10 days, after which time all treated plants were compared to untreated controls and visually evaluated for injury. Plant response ratings, summarized in Table A, are based on a 0 to 100 scale where 0 is no effect and 100 is complete control. A dash (—) response means no test result.

kochia (Kochia scoparia) [2] = assay: Test A preemergence, kochia; conditions: Preemergence, 0 to 100 scale (0 no effect, 100 complete control)
Excerpt: as §1, §2

[3] = tested on: ragweed (common ragweed, Ambrosia elatior); assay: Test A preemergence, ragweed; conditions: Preemergence, 0 to 100 scale (0 no effect, 100 complete control)
Excerpt: as §1, §2

[4] = tested on: ryegrass, Italian (Italian ryegrass, Lolium multiflorum); assay: Test A preemergence, Italian ryegrass; conditions: Preemergence, 0 to 100 scale (0 no effect, 100 complete control)
Excerpt: as §1, §2

[5] = tested on: foxtail, giant (giant foxtail, Setaria faberii); assay: Test A preemergence, giant foxtail; conditions: Preemergence, 0 to 100 scale (0 no effect, 100 complete control)
Excerpt: as §1, §2

[6] = tested on: pigweed (Amaranthus retroflexus); assay: Test A preemergence, pigweed; conditions: Preemergence, 0 to 100 scale (0 no effect, 100 complete control)
Excerpt: as §1, §2

[7] = tested on: barnyardgrass (Echinochloa crus-galli); assay: Test A postemergence, barnyardgrass; conditions: postemergence, 0 to 100 scale, 0 is no effect, 100 is complete control, approximately 10 days
Excerpt: as §1, §2

kochia (Kochia scoparia) [8] = assay: Test A postemergence, kochia; conditions: postemergence, 0 to 100 scale, 0 is no effect, 100 is complete control, approximately 10 days
Excerpt: as §1, §2

[9] = tested on: ragweed (common ragweed, Ambrosia elatior); assay: Test A postemergence, ragweed; conditions: postemergence, 0 to 100 scale, 0 is no effect, 100 is complete control, approximately 10 days
Excerpt: as §1, §2

[10] = tested on: ryegrass, Italian (Italian ryegrass, Lolium multiflorum); assay: Test A postemergence, Italian ryegrass; conditions: postemergence, 0 to 100 scale, 0 is no effect, 100 is complete control, approximately 10 days
Excerpt: as §1, §2

[11] = tested on: foxtail, giant (giant foxtail, Setaria faberii); assay: Test A postemergence, giant foxtail; conditions: postemergence, 0 to 100 scale, 0 is no effect, 100 is complete control, approximately 10 days
Excerpt: as §1, §2

[12] = tested on: pigweed (Amaranthus retroflexus); assay: Test A postemergence, pigweed; conditions: postemergence, 0 to 100 scale, 0 is no effect, 100 is complete control, approximately 10 days
Excerpt: as §1, §2

[13] = tested on: wheat (Triticum aestivum); assay: Test A postemergence, wheat; conditions: postemergence, 0 to 100 scale, 0 is no effect, 100 is complete control, approximately 10 days
Excerpt: as §1, §2

corn (Zea mays) = assay: Test A postemergence, corn; conditions: postemergence, 0 to 100 scale, 0 is no effect, 100 is complete control, approximately 10 days
Excerpt: as §1, §2

[14] = tested on: blackgrass (Alopecurus myosuroides); assay: Test A postemergence, blackgrass; conditions: postemergence, 0 to 100 scale, 0 is no effect, 100 is complete control, approximately 10 days
Excerpt: as §1, §2

[15] = tested on: galium (catchweed bedstraw, Galium aparine); assay: Test A postemergence, galium; conditions: postemergence, 0 to 100 scale, 0 is no effect, 100 is complete control, approximately 10 days
Excerpt: as §1, §2

rice (Oryza sativa) = assay: Test B flooded paddy test, rice; conditions: 250 g ai/ha, Flood; visual rating after 13 to 15 days; scale 0 to 100, 0 is no effect, 100 is complete control
Protocol: (§3) Plant species in the flooded paddy test selected from rice (Oryza sativa), sedge, umbrella (small-flower umbrella sedge, Cyperus difformis), ducksalad (Heteranthera limosa), and barnyardgrass (Echinochloa crus-galli) were grown to the 2-leaf stage for testing. At time of treatment, test pots were flooded to 3 cm above the soil surface, treated by application of test compounds directly to the paddy water, and then maintained at that water depth for the duration of the test. Treated plants and controls were maintained in a greenhouse for 13 to 15 days, after which time all species were compared to controls and visually evaluated. Plant response ratings, summarized in Table B, are based on a scale of 0 to 100 where 0 is no effect and 100 is complete control. A dash (—) response means no test result.

[16] = tested on: sedge, umbrella (small-flower umbrella sedge, Cyperus difformis); assay: Test B flooded paddy test, umbrella sedge; conditions: 250 g ai/ha, Flood; visual rating after 13 to 15 days; scale 0 to 100, 0 is no effect, 100 is complete control
Protocol: as §3

[17] = tested on: ducksalad (Heteranthera limosa); assay: Test B flooded paddy test, ducksalad; conditions: 250 g ai/ha, Flood; visual rating after 13 to 15 days; scale 0 to 100, 0 is no effect, 100 is complete control
Protocol: as §3

[18] = tested on: barnyardgrass (Echinochloa crus-galli); assay: Test B flooded paddy test, barnyardgrass; conditions: 250 g ai/ha, Flood; visual rating after 13 to 15 days; scale 0 to 100, 0 is no effect, 100 is complete control
Protocol: as §3

Compound	Plant response rating, Barnyardgrass ([1]; 125 g ai/ha)	Plant response rating, Kochia (kochia (Kochia scoparia) [2]; 125 g ai/ha)	Plant response rating, Ragweed ([3]; 125 g ai/ha)	Plant response rating, Ryegrass, Italian ([4]; 125 g ai/ha)	Plant response rating, Foxtail, Giant ([5]; 125 g ai/ha)	Plant response rating, Pigweed ([6]; 125 g ai/ha)	Plant response rating, Barnyardgrass ([7]; 125 g ai/ha)	Plant response rating, Ragweed ([9]; 125 g ai/ha)	Plant response rating, Ryegrass, Italian ([10]; 125 g ai/ha)	Plant response rating, Foxtail, Giant ([11]; 125 g ai/ha)	Plant response rating, Pigweed ([12]; 125 g ai/ha)	Plant response rating, Wheat ([13]; 125 g ai/ha)	Plant response rating, Corn (corn (Zea mays); 125 g ai/ha)	Plant response rating, Blackgrass ([14]; 125 g ai/ha)	Plant response rating, Galium ([15]; 125 g ai/ha)	Plant response rating, Rice (rice (Oryza sativa))	Plant response rating, Sedge, Umbrella [16]	Plant response rating, Ducksalad [17]	Plant response rating, Barnyardgrass [18]	Plant response rating, Barnyardgrass ([1]; 31 g ai/ha)	also measured
N#Cc1cccc(Oc2ncc(Cl)cn2)c1OCc1ccccc1Cl [Compound 2]	0	0	0	0	10	0	0	0	0	0	0	0	0	0	20	0	0	0	0	–	Plant response rating, Barnyardgrass ([1]; 500 g ai/ha): 10; Plant response rating, Kochia (kochia (Kochia scoparia) [2]; 500 g ai/ha): 0; Plant response rating, Ragweed ([3]; 500 g ai/ha): 0; Plant response rating, Ryegrass, Italian ([4]; 500 g ai/ha): 0; Plant response rating, Foxtail, Giant ([5]; 500 g ai/ha): 70; Plant response rating, Pigweed ([6]; 500 g ai/ha): 20; Plant response rating, Barnyardgrass ([7]; 500 g ai/ha): 10; Plant response rating, Kochia (kochia (Kochia scoparia) [8]; 125 g ai/ha): 30; Plant response rating, Kochia (kochia (Kochia scoparia) [8]; 500 g ai/ha): 40; Plant response rating, Ragweed ([9]; 500 g ai/ha): 10; Plant response rating, Ryegrass, Italian ([10]; 500 g ai/ha): 0; Plant response rating, Foxtail, Giant ([11]; 500 g ai/ha): 10; Plant response rating, Pigweed ([12]; 500 g ai/ha): 10; Plant response rating, Wheat ([13]; 500 g ai/ha): 0; Plant response rating, Corn (corn (Zea mays); 500 g ai/ha): 30; Plant response rating, Blackgrass ([14]; 500 g ai/ha): 0; Plant response rating, Galium ([15]; 500 g ai/ha): 50
Cc1cccc(Oc2ncc(Cl)cn2)c1OC/C=C/C(F)(F)F [Compound 58]	90	0	0	0	90	100	70	0	0	70	30	0	10	30	30	15	100	100	0	40	Plant response rating, Kochia (kochia (Kochia scoparia) [2]; 31 g ai/ha): 0; Plant response rating, Ragweed ([3]; 31 g ai/ha): 0; Plant response rating, Ryegrass, Italian ([4]; 31 g ai/ha): 0; Plant response rating, Foxtail, Giant ([5]; 31 g ai/ha): 40; Plant response rating, Pigweed ([6]; 31 g ai/ha): 0; Plant response rating, Barnyardgrass ([7]; 31 g ai/ha): 50; Plant response rating, Ragweed ([9]; 31 g ai/ha): 0; Plant response rating, Ryegrass, Italian ([10]; 31 g ai/ha): 0; Plant response rating, Foxtail, Giant ([11]; 31 g ai/ha): 20; Plant response rating, Pigweed ([12]; 31 g ai/ha): 10; Plant response rating, Wheat ([13]; 31 g ai/ha): 0; Plant response rating, Corn (corn (Zea mays); 31 g ai/ha): 0; Plant response rating, Blackgrass ([14]; 31 g ai/ha): 0; Plant response rating, Galium ([15]; 31 g ai/ha): 0
Cc1cccc(Oc2ncc(Cl)cn2)c1OC/C=C/Cl [Compound 59]	100	100	0	0	50	100	100	0	0	50	70	0	10	50	30	0	90	100	20	30	Plant response rating, Kochia (kochia (Kochia scoparia) [2]; 31 g ai/ha): 60; Plant response rating, Ragweed ([3]; 31 g ai/ha): 0; Plant response rating, Ryegrass, Italian ([4]; 31 g ai/ha): 0; Plant response rating, Foxtail, Giant ([5]; 31 g ai/ha): 10; Plant response rating, Pigweed ([6]; 31 g ai/ha): 20; Plant response rating, Barnyardgrass ([7]; 31 g ai/ha): 40; Plant response rating, Ragweed ([9]; 31 g ai/ha): 0; Plant response rating, Ryegrass, Italian ([10]; 31 g ai/ha): 0; Plant response rating, Foxtail, Giant ([11]; 31 g ai/ha): 20; Plant response rating, Pigweed ([12]; 31 g ai/ha): 40; Plant response rating, Wheat ([13]; 31 g ai/ha): 0; Plant response rating, Corn (corn (Zea mays); 31 g ai/ha): 0; Plant response rating, Blackgrass ([14]; 31 g ai/ha): 0; Plant response rating, Galium ([15]; 31 g ai/ha): 90
